These results are taken from ChEMBL document CHEMBL5050844 (2019).

Assay type in all cases: functional, T cell line
Assay [1] can be described thus: Induction of anti-CD3/CD28 antibodies-stimulated human T cell activation at 1 uM assessed fold increase in CD25 expression measured by ELISA assay. On the technique in general: In an ELISA, binding on a coated surface is turned into a signal by an enzyme label.
Assay [2] in a line: Induction of anti-CD3 antibodies-stimulated human T cell activation at 1 uM assessed fold increase in IL-2 secretion measured by ELISA assay. Also: reference of the scale not given here.
The nature of assay [3]: Induction of anti-CD3/CD28 antibodies-stimulated human T cell activation at 0.3 uM assessed fold increase in CD25 expression measured by ELISA assay.
Assay [4] in a line: Induction of anti-CD3 antibodies-stimulated human T cell activation at 8 uM assessed fold increase in CD25 expression measured by ELISA assay. Also: reference of the scale not given here.
The nature of assay [5]: Induction of anti-CD3/CD28 antibodies-stimulated human T cell activation at 4 uM assessed fold increase in IL-2 secretion measured by ELISA assay.
Assay [6] can be described thus: Induction of anti-CD3/CD28 antibodies-stimulated human T cell activation at 1 uM assessed fold increase in IL-2 secretion measured by ELISA assay.
Assay [7] can be described thus: Induction of anti-CD3 antibodies-stimulated human T cell activation at 8 uM assessed fold increase in IL-2 secretion measured by ELISA assay. Also: reference of the scale not given here.
Assay [8] can be described thus: Induction of anti-CD3 antibodies-stimulated human T cell activation at 1 uM assessed fold increase in CD25 expression measured by ELISA assay. Also: reference of the scale not given here.
A short description of assay [9]: Induction of anti-CD3/CD28 antibodies-stimulated human T cell activation at 4 uM assessed fold increase in CD25 expression measured by ELISA assay.
The nature of assay [10]: Induction of anti-CD3/CD28 antibodies-stimulated human T cell activation at 0.3 uM assessed fold increase in IL-2 secretion measured by ELISA assay.

Take `C[C@H](Sc1nncn1C)c1cccc(NC(=O)c2cncc(C(F)(F)F)n2)c1`: the “fold change (FC)” value is recorded as 1.01 in [1]; “<=0.05” in [2]; “<=1” in assay [3]; 0.601 in assay [4]; 1.01 in assay [5]; 1.01 in assay [6]. Besides, the “fold change (FC)” value in assay [7] is reported as “<=0.05”; in assay [8] it was “<=0.6”; in assay [9] it was 1.01; in assay [10], “<=1”.

`C[C@@H](c1cccc(N2Cc3c(cccc3C(F)(F)F)C2=O)c1)[C@H](F)c1nncn1C` (relative stereo): the “fold change (FC)” value in [1] was 1.01; in assay [2], 0.101; in assay [3], 1.01; in assay [4] it was 0.801; in assay [5] it was 2.51; in assay [6] it was 2.51. The “fold change (FC)” value in assay [7] was “>=0.201”; in assay [8], 0.601; in assay [9], 1.01; in assay [10] it was 2.51.

With `Cn1cnnc1[C@@H]1CC[C@@H]1c1cccc(N2Cc3c(cccc3C(F)(F)F)C2=O)c1`, the “fold change (FC)” value in [1] is listed as 1.01; in assay [2], 0.101; in assay [3], 1.01; in assay [4] it was 0.801; in assay [5] it was “>=7.5”; in assay [6], “>=7.5”. In addition, the “fold change (FC)” value in [7] was “>=0.201”; in assay [8], 0.601; in [9], 1.01; in assay [10], 5.

Regarding `C[C@H](Cc1nncn1C)c1cccc(NC(=O)c2cc(C(=O)N3C[C@@H](O)C[C@H]3C)ccn2)c1`, the “fold change (FC)” value is reported as 1.01 in [1]; 0.101 in assay [2]; 1.01 in [3]; “<=0.6” in assay [4]; “<=1” in assay [5]; “<=1” in assay [6]. Moreover, the “fold change (FC)” value in assay [7] is given as 0.101; in [8], “<=0.6”; in [9], 1.51; in [10], “<=1”.

For `Cn1cnnc1[C@H](F)[C@@](C)(F)c1cccc(N2Cc3c(cc(C4CC4)cc3C(F)(F)F)C2=O)c1` (single isomer, unassigned; 483), the “fold change (FC)” value is recorded as 1.01 in assay [1]; 0.051 in assay [2]; 1.01 in assay [3]; 0.801 in assay [4]; 1.01 in [5]; 1.01 in [6]. The “fold change (FC)” value in assay [7] is listed as 0.051; in [8], 0.601; in [9], 1.01; in [10], “<=1”.

For the compound `C[C@H](Cc1nncn1C)c1cc(NC2CCC2)nc(N2Cc3c(cccc3C(F)(F)F)C2=O)c1`, the “fold change (FC)” value is reported as 1.01 in [1]; “<=0.05” in [2]; 1.01 in assay [3]; “>=1.001” in [4]; 1.01 in assay [5]; 1.01 in [6]. For the same compound, the “fold change (FC)” value turned out to be 0.151 in [7], 0.601 in assay [8], 1.01 in assay [9] and 1.01 in assay [10].

As to `C[C@H](Sc1nncn1C)c1cccc(NC(=O)c2cc3ccccc3cn2)c1`, the “fold change (FC)” value in assay [1] is given as 1.01; in [2] it was “<=0.05”; in [3] it was 1.01; in assay [4], “<=0.6”; in [5], 1.01; in assay [6], 1.01. For the same compound, the “fold change (FC)” value in [7] was 0.051; in [8] it was “<=0.6”; in assay [9], 1.01; in assay [10], 1.01.
